From patent US20260132132A1, “3A,4,5,6-TETRAHYDRO-1 H-PYRAZOLO[3,4-C]PYRIDIN-7(7AH)-ONE DERIVATIVES AS FACTOR XIIA INHIBITORS” (KALVISTA PHARMACEUTICALS LIMITED, priority 2022, published 2026)

How the values were obtained:
[1] = biological target: T1, Human Factor XIIa (hFXIIa) (Homo sapiens, UniProt P00748); test: Determination of Human Factor XIIa (hFXIIa) inhibition, fluorogenic substrate IC50 assay; type: biochemical; details: fluorogenic substrate H-DPro-Phe-Arg-AFC at Km, 25° C., read-out: Human FXIIa IC50
T1 construct: purchased Enzyme Research Laboratories
T1 sequence (P00748 373-615 limits assumed): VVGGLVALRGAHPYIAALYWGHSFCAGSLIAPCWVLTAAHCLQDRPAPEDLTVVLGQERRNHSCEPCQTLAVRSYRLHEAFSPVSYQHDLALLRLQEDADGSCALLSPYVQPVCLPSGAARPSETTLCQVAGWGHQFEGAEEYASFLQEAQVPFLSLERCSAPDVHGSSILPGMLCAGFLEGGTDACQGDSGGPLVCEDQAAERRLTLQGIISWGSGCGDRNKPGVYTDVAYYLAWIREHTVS
T1 sequence (P00748 20-372 partner limits assumed): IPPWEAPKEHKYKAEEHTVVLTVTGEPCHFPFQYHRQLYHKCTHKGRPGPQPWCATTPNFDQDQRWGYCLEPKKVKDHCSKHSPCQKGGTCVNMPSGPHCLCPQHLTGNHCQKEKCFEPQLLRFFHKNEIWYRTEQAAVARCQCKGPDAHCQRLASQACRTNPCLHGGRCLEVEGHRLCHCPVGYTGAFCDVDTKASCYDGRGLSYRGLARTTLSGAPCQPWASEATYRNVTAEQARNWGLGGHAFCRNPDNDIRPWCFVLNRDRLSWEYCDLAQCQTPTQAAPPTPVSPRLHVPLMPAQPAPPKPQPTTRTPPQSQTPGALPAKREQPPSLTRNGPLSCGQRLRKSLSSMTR
Method: Determination of Human Factor XIIa (hFXIIa) inhibition
The Km for the cleavage of the substrate by hFXIIa was determined by standard transformation of the Michaelis-Menten equation, with subsequent inhibition assays performed at substrate Km concentration.

FXa = FXa (Homo sapiens, UniProt P00742); test: Related protease inhibition: FXa, fluorogenic substrate; type: biochemical; details: fluorogenic substrate at Km, 25° C.; H1-H3 = % activity at 40 μM
Method: Human serine protease enzyme Plasma Kallikrein, KLK1, FXa, Plasmin, Thrombin and Trypsin were assayed for enzymatic activity using an appropriate fluorogenic substrate at Km concentration, FXIa at fixed substrate concentration of 100 μM and various concentrations of the test compound.

[2] = Pharmacokinetics following a single intravenous dose and a single oral dose in rats; type: in vivo; details: rat, male Sprague-Dawley rats, single iv dose (nominal 1 mg/kg) and single oral dose (nominal 5 mg/kg) in 10% DMSO/10% Cremophor EL/80% SWFI, plasma by LCMS, Phoenix WinNonlin; for bioavailability: read-out: F % (oral bioavailability); for half-life: route for T½ not stated
Method: Pharmacokinetic studies of the compounds in Table 10 were performed to assess the pharmacokinetics following a single intravenous dose and a single oral dose in male Sprague-Dawley rats. Two rats were given a single intravenous dose of 1 ml/kg of a nominal 1 mg/ml (1 mg/kg) composition of test compound in 10% DMSO/10% Cremophor EL/80% SWFI vehicle. Two rats were given a single oral dose of 5 mL/kg of a nominal 1 mg/ml (5 mg/kg) composition of test compound in 10% DMSO/10% Cremophor EL/80% SWFI vehicle.
Following intravenous dosing, blood samples were collected over a period of 12 h. Sample times were 2, 5, 15 and 30 min then 1, 2, 4, 6, and 12 h. Following oral dosing, blood samples were collected over a period of 24 h. Sample times were 5, 15 and 30 min then 1, 2, 4, 6, 8, 12 and 24 h.
Following collection, blood samples were centrifuged and the plasma fraction analysed for concentration of test compound by LCMS. Oral bioavailability and half-life calculations from these studies were obtained using Phoenix WinNonlin (v8.0) and are shown below: […]

Chain of FXa (P00742 235-488 limits assumed): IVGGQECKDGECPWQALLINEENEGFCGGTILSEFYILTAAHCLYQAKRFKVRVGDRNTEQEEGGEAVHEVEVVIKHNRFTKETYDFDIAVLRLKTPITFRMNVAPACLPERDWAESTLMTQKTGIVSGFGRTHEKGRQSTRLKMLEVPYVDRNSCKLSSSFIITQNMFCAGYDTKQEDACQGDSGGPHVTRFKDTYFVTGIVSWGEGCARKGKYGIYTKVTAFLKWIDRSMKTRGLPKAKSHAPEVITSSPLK
Chain of FXa (P00742 41-179 partner limits assumed): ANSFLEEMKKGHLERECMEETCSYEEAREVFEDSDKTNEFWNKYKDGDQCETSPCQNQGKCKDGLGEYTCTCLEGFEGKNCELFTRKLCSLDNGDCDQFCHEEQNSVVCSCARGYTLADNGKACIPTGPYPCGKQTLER

IC50 [1]	IC50 (FXa)	bioavailability [2]	half-life [2]	SMILES
100 to 300 nM	1000 to 3000 nM	36%	5.47 h	CN1CCc2ccc(N3CCc4c(C(=O)N[C@H](CO)c5ccccc5)nn(-c5cccc(Cl)c5)c4C3=O)cc2C1 [Example 1024, (S)-1-(3-Chlorophenyl)-N-(2-hydroxy-1-phenylethyl)-6-(2-methyl-1,2,3,4-tetrahydroisoquinolin-7-yl)-7-oxo-4,5,6,7-tetrahydro-1H-pyrazolo[3,4-c]pyridine-3-carboxamide]
10 to 100 nM	> 40000 nM	55%	4.62 h	O=C(NCC1CC1)c1nn(-c2cccc(Cl)c2)c2c1CCN(c1ccc3c(c1)CN(CCO)CC3)C2=O [Example 1055, 1-(3-Chlorophenyl)-N-(cyclopropylmethyl)-6-(2-(2-hydroxyethyl)-1,2,3,4-tetrahydroisoquinolin-7-yl)-7]
10 to 100 nM	10000 to 40000 nM	27%	4.55 h	Cc1cc(C)c(CNC(=O)c2nn(-c3cccc(Cl)c3)c3c2CCN(c2ccc4c(c2)CN(CCO)CC4)C3=O)cn1 [Example 1128, 1-(3-Chlorophenyl)-N-((4,6-dimethylpyridin-3-yl)methyl)-6-(2-(2-hydroxyethyl)-1,2,3,4-tetrahydroisoquinolin-7-yl)-7-oxo-4,5,6,7-tetrahydro-1H-pyrazolo[3,4-c]pyridine-3-carboxamide]
300 to 1000 nM	> 40000 nM	56%	2.22 h	CN1CCc2ccc(N3CCc4c(C(=O)NCC5CC5)nn(-c5cccc(Cl)c5)c4C3=O)cc2C1=O [Example 1149, 1-(3-chlorophenyl)-N-(cyclopropylmethyl)-6-(2-methyl-1-oxo-1,2,3,4-tetrahydroisoquinolin-7-yl)-7-oxo-4,5,6,7-tetrahydro-1H-pyrazolo[3,4-c]pyridine-3-carboxamide]
10 to 100 nM	10000 to 40000 nM	22%	1.17 h	Cc1cc(CNC(=O)c2nn(-c3cccc(Cl)c3)c3c2CCN(c2cc4c(cn2)CCN(CCO)C4)C3=O)nn1C [Example 1220, 1-(3-chlorophenyl)-N-((1,5-dimethyl-1H-pyrazol-3-yl)methyl)-6-(6-(2-hydroxyethyl)-5,6,7,8-tetrahydro-2,6-naphthyridin-3-yl)-7-oxo-4,5,6,7-tetrahydro-1H-pyrazolo[3,4-c]pyridine-3-carboxamide]
10 to 100 nM		5%	0.583 h	Cc1cc(CNC(=O)c2nn(-c3cccc(Cl)c3)c3c2CCN(c2ccc4c(c2)C(=O)N(CCO)CC4)C3=O)nn1C [Example 1222, 1-(3-chlorophenyl)-N-((1,5-dimethyl-1H-pyrazol-3-yl)methyl)-6-(2-(2-hydroxyethyl)-1-oxo-1,2,3,4-tetrahydroisoquinolin-7-yl)-7-oxo-4,5,6,7-tetrahydro-1H-pyrazolo[3,4-c]pyridine-3-carboxamide]
100 to 300 nM	> 40000 nM	27%	0.75 h	CN1CCc2ccc(N3CCc4c(C(=O)N[C@@H]5CCOC5)nn(-c5cccc(Cl)c5F)c4C3=O)cc2C1=O [Example 2039, (R)-1-(3-chloro-2-fluorophenyl)-6-(2-methyl-1-oxo-1,2,3,4-tetrahydroisoquinolin-7-yl)-7-oxo-N-(tetrahydrofuran-3-yl)-4,5,6,7-tetrahydro-1H-pyrazolo[3,4-c]pyridine-3-carboxamide]
